Data: patent US11007274B2, “Compounds for medicinal applications” (Ausvir Therapeutics Pty LTD, priority 2015, dated 2021)
≈ marks a conversion by molar mass, not a printed value. Where two headings read alike, the source gives them in different places.

Columns and labels:
[1] = system: CA/07/2009; test: microbe, parasite or virus in culture; assay type: cell-based
[2] = system: Duck/MN/1525/81; assay type: cell-based; details: Table 7
[3] = system: Perth/16/2009; test: microbe, parasite or virus in culture; assay type: cell-based
[4] = system: Florida/4/2006; test: microbe, parasite or virus in culture; assay type: cell-based
[5] = system: Influenza A virus H7N9, A/Anhui/1/2003; assay type: cell-based
[6] = system: Influenza A virus H7N9, A/Anhui/1/2003; assay type: cell-based; remark: listed apart in the source
[7] = system: Influenza A virus H5N1, Hong Kong/213/2003; test: microbe, parasite or virus in culture; assay type: cell-based
[8] = system: Influenza A virus H5N1, Hong Kong/213/2003; test: microbe, parasite or virus in culture; assay type: cell-based; remark: listed apart in the source
[9] = line Neutral Red (Cytopathic effect/Toxicity)

Structure (SMILES)	EC50 ([1]; Table 7) [nM]	EC50 CA/07/2009 ([1]; Table 7, MDCK cell line) [ng/mL]	EC50 [2] [nM]	EC50 ([3]; Table 7) [nM]	EC50 Perth/16/2009 ([3]; Table 7) [ng/mL]	EC50 ([4]; Table 7) [nM]	EC50 Florida/4/2006 ([4]; Table 7) [ng/mL]	EC50 [1] [nM]	EC50 CA/07/2009 [1] [ng/mL]	EC50 [3] [nM]	EC50 Perth/16/2009 [3] [ng/mL]	EC50 [4] [nM]	EC50 Florida/4/2006 [4] [ng/mL]	EC90 [5] [ng/mL]	EC50 [6] [ng/mL]	EC90 [7] [ng/mL]	EC50 [8] [ng/mL]	CC50 ([9]; Table 9) [ng/mL]	CC50 ([9]; Table 10) [ng/mL]	EC50 ([4]; Table 7, cells of the nM column printed in μM) [nM]
CC(=O)N[C@H]1[C@H]([C@H](OC(=O)NCCCCCCNC(=O)c2cc(C(=O)O)c(C(=O)NCCCCCCNC(=O)O[C@@H]([C@@H]3OC(C(=O)O)=C[C@H](N=C(N)N)[C@H]3NC(C)=O)[C@H](O)CO)cc2C(=O)O)[C@H](O)CO)OC(C(=O)O)=C[C@@H]1N=C(N)N [MD015, PK1 PYR(Z)2]	6	7 (≈ 6 nM)	0.34	6.7	7.8 (≈ 6.68 nM)	2.1	2.5 (≈ 2.14 nM)	–	–	–	–	–	–	–	–	–	–	–	–	–
CC(=O)N[C@H]1[C@H]([C@H](OC(=O)NCCCCCCNC(=O)c2cc(C(=O)NCCCCCCNC(=O)O[C@@H]([C@@H]3OC(C(=O)O)=C[C@H](N=C(N)N)[C@H]3NC(C)=O)[C@H](O)CO)c(C(=O)O)cc2C(=O)O)[C@H](O)CO)OC(C(=O)O)=C[C@@H]1N=C(N)N [MD016, PK2 PYR(Z)2]	–	–	0.51	–	–	–	–	7.7	9 (≈ 7.71 nM)	2.8	3.3 (≈ 2.83 nM)	7	8.2 (≈ 7.03 nM)	–	–	–	–	–	–	–
CC(=O)N[C@H]1[C@H]([C@H](OC(=O)NCCCCCCCCNC(=O)[C@@H]2C[C@H](C(=O)NCCCCCCCCNC(=O)O[C@@H]([C@@H]3OC(C(=O)O)=C[C@H](N=C(N)N)[C@H]3NC(C)=O)[C@H](O)CO)C[C@H](C(=O)N[C@@H](CC(=O)NCS(=O)(=O)O)C(=O)NCS(=O)(=O)O)C2)[C@H](O)CO)OC(C(=O)O)=C[C@@H]1N=C(N)N [MD154, CHTCA(Z0)2-L-Asp(NHCH2SO3H)2]	6.06	9 (≈ 6.05 nM)	< 0.087	< 0.087	<0.13	< 0.087	<0.13	–	–	–	–	–	–	10 (≈ 6.73 nM)	<0.32	<0.32	<0.32	>1000	>1000	–
CC(=O)N[C@H]1[C@H]([C@H](OC(=O)NCCCCNC(=O)[C@@H]2C[C@H](C(=O)NCCCCNC(=O)O[C@@H]([C@@H]3OC(C(=O)O)=C[C@H](N=C(N)N)[C@H]3NC(C)=O)[C@H](O)CO)C[C@H](C(=O)N[C@@H](CC(=O)O)C(=O)O)C2)[C@H](O)CO)OC(C(=O)O)=C[C@@H]1N=C(N)N [MD206, CHTCA(Zb)2-L-Asp]	1.68	2 (≈ 1.68 nM)	0.59	6.1	7.3 (≈ 6.14 nM)	–	>10000	–	–	–	–	–	–	–	–	–	–	–	–	> 8400
CC(=O)N[C@H]1[C@H]([C@H](OC(=O)NCCCCNC(=O)c2cc(C(=O)NCCCCNC(=O)O[C@@H]([C@@H]3OC(C(=O)O)=C[C@H](N=C(N)N)[C@H]3NC(C)=O)[C@H](O)CO)c(C(=O)N[C@H](CC(=O)NCS(=O)(=O)O)C(=O)NCS(=O)(=O)O)cc2C(=O)N[C@H](CC(=O)NCS(=O)(=O)O)C(=O)NCS(=O)(=O)O)[C@H](O)CO)OC(C(=O)O)=C[C@@H]1N=C(N)N [MD219, PK2 PYR(Zb)2[(D-Asp)(NHCH2SO3H)2]2]	–	–	0.29	–	–	–	–	2.92	5 (≈ 2.92 nM)	> 5800	>10000	0.99	1.7 (≈ 0.992 nM)	–	–	–	–	–	–	–
